target: T1, K103NNY181C mutant reverse transcriptase (Human immunodeficiency virus type 1 group M subtype B, UniProt P04585, K690N/Y768C); assay: Reverse transcriptase enzymatic assay (PicoGreen), K103N/Y181C mutant RT; format: biochemical, HIV-1; details: IC50 mut (nM), mutant (K103N/Y181C) reverse transcriptase, enzymatic assay of Example 24
T1 construct: mutations that occur in the reverse transcriptase segment of the pol gene
Outline: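 HIV-1 RT (2.5 nM final) pre-incubated 15 min at room temperature with inhibitor, then reacted 50 min at 37 °C with poly rC 45 nM, dG15 4.5 nM, dGTP 3.6 μM in Tris/HCl pH 7.8, 1% DMSO. Final inhibitor 10 μM to 0.508 nM; EDTA-quenched, PicoGreen fluorescence read at 485/520 nm.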

SMILES | IC50 [nM]
CC(C)(C)c1ccc(-n2nnnc2SCC(=O)Nc2ccc(NC(=O)Cc3cc[n+]([O-])cc3)cc2Cl)c(Cl)c1 [Compound 7046] | 140
CC(C)CCC(=O)Nc1ccc(NC(=O)CSc2nnnn2-c2ccc(C(C)(C)C)cc2Cl)c(Cl)c1 [Compound 7024] | 414
CC(C)(C)c1ccc(-n2nnnc2SCC(=O)Nc2ccc(NC(=O)CC3CCCC3)cc2Cl)c(Cl)c1 [Compound 7023] | 255
CC(C)(C)c1ccc(-n2nnnc2SCC(=O)Nc2ccc(NC(=O)Cc3ccsc3)cc2Cl)c(Cl)c1 [Compound 7026] | 88
CC(C)(C)c1ccc(-n2nnnc2SCC(=O)Nc2ccc(NC(=O)Cc3ccccc3[N+](=O)[O-])cc2Cl)c(Cl)c1 [Compound 7019] | 25
CC(C)(C)c1ccc(-n2nnnc2SCC(=O)Nc2ccc(NS(=O)(=O)c3cccs3)cc2Cl)c(Cl)c1 [Compound 7007] | 331
CC(C)(C)c1ccc(-n2nnnc2SCC(=O)Nc2ccc(NC(=O)Nc3ccccc3)cc2Cl)c(Cl)c1 [Compound 7002] | 187

same assay, conditions: IC50 mut, K103N/Y181C mutant reverse transcriptase, enzymatic assay of Example 24

SMILES | IC50 [nM]
CC(C)(C#Cc1ccc(NC(=O)CSc2nnnn2-c2ccc(C(C)(C)C)cc2Cl)c(Cl)c1)OCC(=O)N1CCOCC1 [Compound 4039] | 40
CC(C)(C)c1ccc(-n2nnnc2SCC(=O)Nc2ccc(C#CCCCCO)cc2Cl)c(Cl)c1 [Compound 4003] | 643
CC(C)(C)c1ccc(-n2nnnc2SCC(=O)Nc2ccc(C#CC3(O)CCC3)cc2Cl)c(Cl)c1 [Compound 4062] | 53
CC(C)(C#Cc1ccc(NC(=O)CSc2nnnn2-c2ccc(C(C)(C)C)cc2Cl)c(Cl)c1)C(=O)O [Compound 4011] | 25
CC(C)(C#Cc1ccc(NC(=O)CSc2nnnn2-c2ccc(C(C)(C)C)cc2Cl)c(Cl)c1)OCC(=O)NC1(C(=O)O)CC1 [Compound 4036] | 36
CC(C)(C#Cc1ccc(NC(=O)CSc2nnnn2-c2cc(C(C)(C)C)cc(Br)c2Cl)c(Cl)c1)NC(=O)CNc1cc[n+]([O-])cc1 [Compound 4225] | 162
CCNC(=O)NC(C)(C)C#Cc1ccc(NC(=O)CSc2nnnn2-c2ccc(C3CC3)cc2Cl)c(Cl)c1 [Compound 4075] | 20.5
CC(C)(C#Cc1ccc(NC(=O)CSc2nnnn2-c2ccc(C(C)(C)C)cc2Cl)c(Cl)c1)CO [Compound 4016] | 35
CC(C)(C#Cc1ccc(NC(=O)CSc2nnnn2-c2cccc(C3CC3)c2Cl)c(Cl)c1)C(=O)O [Compound 4179] | 467
CC(C)(C#Cc1ccc(NC(=O)CSc2nnnn2-c2cc(Cl)c(C3CC3)cc2Cl)c(Cl)c1)C(=O)O [Compound 4206] | 152
CC(C)(C#Cc1ccc(NC(=O)CSc2nnnn2-c2cc(C(C)(C)C)cc(Br)c2Cl)c(Cl)c1)NC(=O)c1cc[n+]([O-])cc1 [Compound 4223] | 30
CC(C)(C#Cc1ccc(NC(=O)CSc2nnnn2-c2ccc(C3CC3)cc2Cl)c(Cl)c1F)NC(=O)CN1CCNCC1 [Compound 4198] | 22
CC(C)(C#Cc1ccc(NC(=O)CSc2nnnn2-c2cc(C(F)(F)F)ccc2Cl)c(Cl)c1)OCCN1CCCC1 [Compound 4142] | 50.5
COC(C)(C)C#Cc1ccc(NC(=O)CSc2nnnn2-c2ccc(C3CC3)cc2Cl)c(Cl)c1 [Compound 4074] | 35.5
CC(C)(C#Cc1ccc(NC(=O)CSc2nnnn2-c2ccc(C(C)(C)C)cc2Cl)c(Cl)c1)COC(N)=O [Compound 4042] | 37
CCS(=O)(=O)NC(=O)C(C)(C)C#Cc1ccc(NC(=O)CSc2nnnn2-c2ccc(C3CC3)cc2Cl)c(Cl)c1 [Compound 4197] | 57.5
C#Cc1ccc(NC(=O)CSc2nnnn2-c2ccc(C(C)(C)C)cc2Cl)c(Cl)c1 [Compound 4089] | 69

SMILES | IC50 [nM]
CC(C)(C#Cc1ccc(NC(=O)CSc2nnnn2-c2ccc(CC3CC3)cc2Cl)c(Cl)c1)C(=O)O [Compound 4240] | 175
CC(C)(C#Cc1ccc(NC(=O)CSc2nnnn2-c2ccc(C3CC3)cc2Cl)c(Cl)c1F)OCCO [Compound 4169] | 9.2
CC(C)(C#Cc1ccc(NC(=O)CSc2nnnn2-c2cc(C(F)(F)F)cc(C3CC3)c2Cl)c(Cl)c1F)NC(=O)c1ccc[n+]([O-])c1 [Compound 4230] | 30.5
CC(C)(C)c1ccc(-n2nnnc2SCC(=O)Nc2ccc(C#CCCC(=O)O)cc2Cl)c(Cl)c1 [Compound 4102] | 24.5
Cc1cc(C#CC(C)(C)NC(=O)c2cc[n+]([O-])cc2)ccc1NC(=O)CSc1nnnn1-c1ccc(C2CC2)cc1Cl [Compound 4180] | 71
CC(C)(C#Cc1ccc(NC(=O)CSc2nnnn2-c2ccc(C3CC3)cc2Cl)c(Cl)c1)C(=O)NCC1CCCO1 (stereo not shown) [Compound 4146] | 37.5
CC(C)(C#Cc1ccc(NC(=O)CSc2nnnn2-c2cc(C(F)(F)F)c(C3CC3)cc2Cl)c(Cl)c1)C(=O)O [Compound 4211] | 482
CC(C)(C#Cc1ccc(NC(=O)CSc2nnnn2-c2ccc(C3CC3)cc2Cl)c(Cl)c1)NC(=O)c1ccc[n+]([O-])c1 [Compound 4191] | 4.75
CC(C)(C#Cc1ccc(NC(=O)CSc2nnnn2-c2cc(C(C)(C)C)cc(Br)c2Cl)c(Cl)c1)NC(=O)CN1CCC(C(=O)O)CC1 [Compound 4226] | 52
CC(C)(C#Cc1ccc(NC(=O)CSc2nnnn2-c2ccc(C3CC3)cc2Cl)c(Cl)c1)NC(=O)c1csnn1 [Compound 4107] | 15
CC(C)(C#Cc1ccc(NC(=O)CSc2nnnn2-c2ccc(C3CC3)cc2Cl)c(Cl)c1)NC(=O)N1CCNCC1 [Compound 4228] | 30
CC(C)(N)C#Cc1ccc(NC(=O)CSc2nnnn2-c2ccc(C3CC3)cc2Cl)c(Cl)c1F [Compound 4151] | 22.5
CC(C)(O)C#Cc1ccc(NC(=O)CSc2nnnn2-c2cc3c(cc2Cl)CCC3)c(Cl)c1 [Compound 4065] | 13.5
CC(C)(C#Cc1ccc(NC(=O)CSc2nnnn2-c2cc(C3CC3)ccc2Cl)c(Cl)c1)NC(=O)CN [Compound 4214] | 19.5
Cc1c(NC(=O)CSc2nnnn2-c2ccc(C3CC3)cc2Cl)ccc(C#CC(C)(C)NC(=O)c2cc[n+]([O-])cc2)c1F [Compound 4178] | 26
CC(C)(C#Cc1ccc(NC(=O)CSc2nnnn2-c2ccc(C(C)(C)C)cc2Cl)c(Cl)c1)C(=O)NCCN1CCOCC1 [Compound 4013] | 62

same assay, conditions: IC50 mut, mutant reverse transcriptase, enzymatic assay of Example 24

SMILES | IC50 [nM]
O=C(CSc1nnnn1-c1ccc(C2CC2)cc1Cl)Nc1ccc(S(=O)(=O)N2CCC(C(=O)O)CC2)cc1Cl [Compound 3042] | 387
O=C(COc1ccc(NC(=O)CSc2nnnn2-c2ccc(C3CC3)cc2Cl)c(Cl)c1)NCCc1ccccn1 [Compound 5034] | 357
CC(C)(C)c1ccc(-n2nnnc2SCC(=O)Nc2ccc(S(=O)(=O)NCCc3ccccc3)cc2Cl)c(Cl)c1 [Compound 3024] | 516
CC(C)(C)c1ccc(-n2nnnc2SCC(=O)Nc2ccc(C(=O)Nc3ccc(/C=C/C(=O)O)cc3)cc2Cl)c(Cl)c1 [Compound 6022] | 14
CC(C)(C)c1ccc(-n2nnnc2SCC(=O)Nc2ccc(OCC(=O)NN3CCOCC3)cc2Cl)c(Cl)c1 [Compound 5006] | 374
Cc1cc(NC(=O)c2ccc(NC(=O)CSc3nnnn3-c3ccc(C(C)(C)C)cc3Cl)c(Cl)c2)ccc1/C=C/C(=O)O [Compound 6032] | 20.5
CC(C)(C)c1ccc(-n2nnnc2SCC(=O)Nc2ccc(C(=O)NN3CCOCC3)cc2Cl)c(Cl)c1 [Compound 6007] | 30
CC(C)(C)c1ccc(-n2nnnc2SCC(=O)Nc2ccc(S(=O)(=O)Nc3ccccc3)cc2Cl)c(Cl)c1 [Compound 3026] | 423
CC(C)(C)c1ccc(-n2nnnc2SCC(=O)Nc2ccc(OCC(=O)NC3CCOCC3)cc2Cl)c(Cl)c1 [Compound 5030] | 116
CC(C)(C)c1ccc(-n2nnnc2SCC(=O)Nc2ccc(OCC(=O)N3CCC(C(=O)O)CC3)cc2Cl)c(Cl)c1 [Compound 5028] | 39
Cc1ccc(-n2nnnc2SCC(=O)Nc2ccc(-c3ccc(OCC(=O)O)cc3)cc2Cl)c(Cl)c1 [Compound 2007] | 22
CC(C)(C)c1ccc(-n2nnnc2SCC(=O)Nc2ccc(OCC(=O)Nc3cccc(O)c3)cc2Cl)c(Cl)c1 [Compound 5011] | 69
O=C(CSc1nnnn1-c1ccc(C2CC2)cc1Cl)Nc1ccc(-c2ccc(OCCN3CCCC3)cc2)cc1Cl [Compound 2046] | 6.95
O=C(CSc1nnnn1-c1ccc(C2CC2)cc1Cl)Nc1ccc(C(=O)NCc2cc[n+]([O-])cc2)cc1Cl [Compound 6034] | 44.5
CC(C)(C)c1ccc(-n2nnnc2SCC(=O)Nc2ccc(C(=O)Nc3ccc(N4CCOCC4)cc3)cc2Cl)c(Cl)c1 [Compound 6006] | 46
O=C(O)Cc1ccc(-c2ccc(NC(=O)CSc3nnnn3-c3ccc(C(F)(F)F)cc3Cl)c(Cl)c2)cc1 [Compound 2023] | 169
CC(C)(C)c1ccc(-n2nnnc2SCC(=O)Nc2ccc(OCC(=O)Nc3ccccc3O)cc2Cl)c(Cl)c1 [Compound 5009] | 131
CC(C)(C)c1ccc(-n2nnnc2SCC(=O)Nc2ccc(-c3ncc[nH]3)cc2Cl)c(Cl)c1 [Compound 3029] | 76
COC(=O)Cc1cccc(-c2ccc(NC(=O)CSc3nnnn3-c3ccc(C)cc3Cl)c(Cl)c2)c1 [Compound 3002] | 120
CN(CCc1ccncc1)C(=O)COc1ccc(NC(=O)CSc2nnnn2-c2ccc(C3CC3)cc2Cl)c(Cl)c1 [Compound 5037] | 174
CC(C)(C)c1ccc(-n2nccc2SCC(=O)Nc2ccc(-c3ccc(CC(=O)O)cc3)cc2Cl)c(Cl)c1 [Compound 1006] | 216
O=C(CSc1nnnn1-c1ccc(C2CC2)cc1Cl)Nc1ccc(-c2ccc(OCCN3CCCC3)cc2)c(F)c1Cl [Compound 2057] | 8.8
Cc1ccc(-n2nccc2OCC(=O)Nc2ccc(-c3ccc(CC(=O)O)cc3)cc2Cl)c(Cl)c1 [Compound 1003] | 770
CC(C)(C)c1ccc(-n2nnnc2SCC(=O)Nc2ccc(OCC(=O)NCCC(=O)O)cc2Cl)c(Cl)c1 [Compound 5025] | 124

— patent publication US7517998B2, “Non nucleoside reverse transcriptase inhibitors” (priority 2004, dated 2009)
